Measured values taken from patent US9345742B2, “Aminostatin derivatives for the treatment of arthrosis” (MERCK PATENT GMBH, priority 2011, dated 2016).
Numbered stars: 1 amine (or outer) side, 2 acyl side, 3 side chain; on linkers, the order of the positions; unused ones are H or OH. Square brackets hold non-standard residues; d marks the D form. Peptide text beside a SMILES is read from it. * marks the point of attachment. X1 = N[C@@H](CC(=O)[*:2])[C@H](Cc1ccccc1)N[*:1]; 1Nal = N[C@@H](Cc1cccc2ccccc12)C(=O)O; Isovaleryl = CC(C)CC(=O)*; Abu = CC[C@H](N)C(=O)O; Ac3c = NC1(C(=O)O)CC1

How the values were obtained:
[1] = biological target: cathepsin D isolated from the human liver (Homo sapiens (Human), UniProt P07339); experiment: In-vitro fluorescence assay for identification of cathepsin D inhibitors; type: biochemical; conditions: cathepsin D 1.4 nM, pH 5.5; read-out: CatD assay IC50-
Experimental: In order to identify modulators of cathepsin D activity, a continuous enzymatic test was carried out with a synthetic peptide which carries a fluorescent group (MCA=(7-methoxycoumarin-4-yl)acetyl) which is quenched by energy transfer from a Dpn (2,4 dinitrophenyl) group on the same molecule, in Greiner 384-well nb microtitre plates. Cleavage of the peptidic substrate by cathepsin D causes an increase in the fluorescence intensity. In order to determine the efficacy of substances, the time-dependent increase in the fluorescence intensity in the presence of the substance was compared with the time-dependent increase in fluorescence in the absence of substances. The reference substance used was pepstatin A (Sigma-Aldrich). The substrate used was […](Dnp)d-R—NH2 (Enzo Life Sciences, Lörrach). The enzyme employed was cathepsin D isolated from the human liver (Sigma-Aldrich) in a final concentration of 1.4 nM. The test was carried out in 100 mM sodium acetate buffer, 1.25% (v/v) of DMSO, 0.25% (w/v) of Chaps, pH 5.5. 2 μl of each substance solution with serially diluted substance concentration were added to in each case 4 μl of cathepsin D solution and incubated at room temperature for 10 min. The reaction was started by addition of 2 μl of substrate solution (final concentration 5 μM). After carrying out a starting-point fluorescence measurement (excitation wavelength 340 nm/emission wavelength 450 nm) using an Envision multilabel reader (Perkin Elmer), the reaction was incubated at room temperature for 60 min. The amount of peptide fragment cleaved off during the reaction time was subsequently measured by determination of the increase in the fluorescence intensity at 450 nm (excitation wavelength 340 nm).

recombinant human renin = recombinant human renin (Homo sapiens (Human), UniProt P00797); experiment: In-vitro fluorescence assay for identification of renin-inhibitory activity; type: biochemical; conditions: recombinant human renin 10 nM, pH 7.2; read-out: Renin selectivity IC50
Experimental: In order to identify modulators of renin activity, a continuous enzymatic test was carried out with a synthetic peptide which carries a fluorescent group Edans (=(5-(aminoethyl)aminonaphthalenesulfonate) which is quenched by energy transfer from a Dabcyl (4′-dimethylaminoazobenzene-4-carboxylate) group on the same molecule, in Greiner 384-well microtitre plates. Cleavage of the peptidic substrate by renin causes an increase in the fluorescence intensity. In order to determine the efficacy of substances, the time-dependent increase in the fluorescence intensity in the presence of the substance was compared with the time-dependent increase in fluorescence in the absence of substances. The reference substance used was renin inhibitor 2 (Z-Arg-Arg-Pro-Phe-His-Sta-Ile-His N-Boc-Lys methyl ester Z) (Sigma-Aldrich). The substrate used was renin FRET substrate I (DABCYL-g-Abu-[…]EDANS) (Anaspec, Fremont Calif.). The enzyme employed was recombinant human renin (Proteos, Kalamazoo, Mich.) in a final concentration of 10 nM. The test was carried out in 50 mM Mops buffer, 1.5% (v/v) of DMSO, 0.1% (w/v) of Igepal®, pH 7.2, 0.5% (w/v) of BSA. 2 μl of each substance solution with serially diluted substance concentration were added to in each case 4 μl of renin solution and incubated at room temperature for 15 min. The reaction was started by addition of 4 μl of substrate solution (final concentration 5 μM). After carrying out a starting-point fluorescence measurement (excitation wavelength 340 nm/emission wavelength 495 nm) using an Envision multilabel reader (Perkin Elmer), the reaction was incubated at 37° C. for 60 min. The amount of peptide fragment cleaved off during the reaction time was subsequently measured by determination of the increase in the fluorescence intensity at 495 nm (excitation wavelength 340 nm).

Sequence of cathepsin D isolated from the human liver (P07339 65-161): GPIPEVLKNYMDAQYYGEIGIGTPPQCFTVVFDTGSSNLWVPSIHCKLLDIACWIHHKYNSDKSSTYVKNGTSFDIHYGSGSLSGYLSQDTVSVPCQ
Sequence of cathepsin D isolated from the human liver (P07339 169-412): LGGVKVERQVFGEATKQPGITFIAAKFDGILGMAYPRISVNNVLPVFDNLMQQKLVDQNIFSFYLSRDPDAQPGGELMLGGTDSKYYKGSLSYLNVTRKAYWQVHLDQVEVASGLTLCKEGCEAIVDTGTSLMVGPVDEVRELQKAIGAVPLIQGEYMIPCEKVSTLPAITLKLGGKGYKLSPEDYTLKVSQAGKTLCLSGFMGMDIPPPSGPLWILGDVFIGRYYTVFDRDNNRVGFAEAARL
Sequence of recombinant human renin (P00797 67-406): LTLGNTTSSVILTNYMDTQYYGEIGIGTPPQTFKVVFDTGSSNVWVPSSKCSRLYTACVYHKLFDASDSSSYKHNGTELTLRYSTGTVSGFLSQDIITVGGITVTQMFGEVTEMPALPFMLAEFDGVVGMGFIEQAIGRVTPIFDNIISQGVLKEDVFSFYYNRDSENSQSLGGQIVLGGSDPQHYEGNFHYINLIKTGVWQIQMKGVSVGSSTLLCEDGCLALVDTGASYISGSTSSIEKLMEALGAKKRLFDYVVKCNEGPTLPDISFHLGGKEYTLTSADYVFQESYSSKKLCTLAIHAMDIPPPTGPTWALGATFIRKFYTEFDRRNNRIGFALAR

Row | Compound | IC50 [1] [nM] | IC50 (recombinant human renin) [nM]
1 | CC(C)CC(=O)N[C@@H](CC(C)C)C(=O)N[C@H](C(=O)N[C@@H](Cc1ccccc1)[C@@H](N)CC(=O)N[C@H](COc1cccnc1)C(C)C)C(C)C [Compound 43, N-[(S)-2-Methyl-1-(pyridin-3-yloxymethyl)propyl]-(3S,4S)-3-amino-4-{(S)-3-methyl-2-[(S)-4-methyl-2-(3-methylbutyrylamino)-pentanoylamino]butyrylamino}-5-phenylpentanamide] | 240 | > 30000
2 | CC[C@H](C)[C@H](NC(=O)C[C@H](N)[C@H](Cc1ccccc1)NC(=O)[C@H](Cc1ccccc1)NC(=O)[C@H](CC(C)C)NC(=O)CC(C)C)C(=O)N[C@H](C(=O)OC)C(C)C [Compound 11, Methyl (S)-2-[(2S,3S)-2-((3S,4S)-3-amino-4-{(S)-2-[(S)-4-methyl-2-(3-methylbutyrylamino)pentanoylamino]-3-phenyl-propionylamino}-5-phenylpentanoylamino)-3-methylpentanoylamino]-3-methyl-butyrate] (Isovaleryl-LF[X1]IV-OMe) | 610 | > 30000
3 | CC[C@H](C)[C@H](NC(=O)C[C@H](N)[C@H](Cc1ccccc1)NC(=O)[C@@H](NC(=O)[C@H](CC(C)C)NC(=O)CC(C)C)C(C)C)C(=O)N[C@@H](CC(C)C)C(=O)OC [Compound 14, Methyl (S)-2-[(2S,3S)-2-((S)-3-(S)-amino-4-{(S)-3-methyl-2-[(S)-4-methyl-2-(3-methyl-butyrylamino)pentanoylamino]butyryl-amino}-5-phenylpentanoylamino)-3-methylpentanoylamino]-4-methylpentanoate] (Isovaleryl-LV[X1]IL-OMe) | 160 | > 30000
4 | CC[C@H](C)[C@H](NC(=O)C[C@H](N)[C@H](Cc1ccccc1)NC(=O)[C@@H](NC(=O)COc1cccc2ccccc12)C(C)C)C(=O)N[C@H](C(=O)OC)C(C)C [Compound 8, Methyl (S)-2-[(2S,3S)-2-((3S,4S)-3-amino-4-{(S)-3-methyl-2-[2-(naphthalen-1-yloxy)-acetylamino]butyrylamino}-5-phenyl-pentanoylamino)-3-methylpentanoyl-amino]-3-methylbutyrate] | 200 | > 30000
5 | CCc1cccc(CC)c1NC(=O)C[C@H](N)[C@H](Cc1ccccc1)NC(=O)[C@@H](NC(=O)CCCc1ccccc1)C(C)C [Compound 40, N-(2,6-Diethylphenyl)-(3S,4S)-3-amino-4-[(S)-3-methyl-2-(4-phenylbutyrylamino)butyrylamino]-5-phenylpentanamide] | 800 | > 30000
6 | CC[C@H](C)[C@H](NC(=O)C[C@H](N)[C@H](Cc1ccccc1)NC(=O)[C@@H](NC(=O)[C@H](CC(C)C)NC(=O)CC(C)C)C(C)C)C(=O)NCc1ccccc1 [Compound 29, N-((1S,2S)-1-Benzylcarbamoyl-2-methylbutyl)-(S)-3-amino-4-{(S)-(S)-3-methyl-2-[(S)-4-methyl-2-(3-methylbutyrylamino)-pentanoylamino]butyrylamino}-5-phenylpentanamide] | 180 | > 30000
7 | CC[C@H](NC(=O)[C@@H](N)CC(C)C)C(=O)N[C@@H](Cc1ccccc1)[C@@H](N)CC(=O)N[C@H](C(=O)N[C@H](C(=O)OC)C(C)C)[C@@H](C)CC [Compound 2, Methyl (S)-2-((2S,3S)-2-{(3S,4S)-3-amino-4-[(S)-2-((S)-2-amino-4-methylpentanoylamino)butyrylamino]-5-phenylpentanoylamino}-3-methylpentanoylamino)-3-methyl-butyrate] (H-L[Abu][X1]IV-OMe) | 2000 | > 30000

Stronger by IC50 [1], values ahead:

Row | IC50 [1] [nM] | IC50 (recombinant human renin) [nM] | Compound
8 | 110 | > 30000 | CCOC(=O)C1(NC(=O)[C@@H](NC(=O)C[C@H](N)[C@H](Cc2ccccc2)NC(=O)[C@@H](NC(=O)[C@H](CC(C)C)NC(=O)CC(C)C)C(C)C)[C@@H](C)CC)CC1 [Compound 12, Ethyl 1-[(2S,3S)-2-((S)-3-(S)-amino-4-((S)-3-methyl-2-[(S)-4-methyl-2-(3-methyl-butyrylamino)pentanoylamino]butyryl-amino}-5-phenylpentanoylamino)-3-methyl-pentanoylamino] cyclopropanecarboxylate] (Isovaleryl-LV[X1]I[Ac3c]-OEt)
9 | 12 | > 30000 | CC[C@H](C)[C@H](NC(=O)C[C@H](N)[C@H](Cc1ccccc1)NC(=O)[C@@H](NC(=O)Cc1cccc(OC(F)(F)F)c1)C(C)C)C(=O)N[C@H](C(=O)O)C(C)C [Compound 32, (S)-2-[(2S,3S)-2-((3S,4S)-3-Amino-4-{(S)-3-methyl-2-[2-(3-trifluoromethoxyphenyl)-acetylamino]butyrylamino}-5-phenyl-pentanoylamino)-3-methylpentanoyl-amino]-3-methylbutyric acid]
10 | 39 | > 30000 | CC(C)CC(=O)N[C@@H](CC(C)C)C(=O)N[C@H](C(=O)N[C@@H](Cc1ccccc1)[C@@H](N)CC(=O)N[C@H](COc1ccc(F)cc1F)C(C)C)C(C)C [Compound 44, N-[(S)-1-(2,4-Difluorophenoxymethyl)-2-methylpropyl]-(3S,4S)-3-amino-4-{(S)-3-methyl-2-[(S)-4-methyl-2-(3-methylbutyryl-amino)pentanoylamino]butyrylamino}-5-phenylpentanamide]
11 | 5.7 | > 30000 | COC(=O)[C@@H](NC(=O)[C@H](Cc1ccccc1)NC(=O)C[C@H](N)[C@H](Cc1ccccc1)NC(=O)[C@@H](NC(=O)[C@H](CC(C)C)NC(=O)CC(C)C)C(C)C)C(C)C [Compound 15, Methyl (S)-2-[(S)-2-((3S,4S)-3-amino-4-{(S)-3-methyl-2-[(S)-4-methyl-2-(3-methyl-butyrylamino)pentanoylamino]butyryl-amino)-5-phenylpentanoylamino)-3-phenyl-propionylamino]-3-methylbutyrate] (Isovaleryl-LV[X1]FV-OMe)
12 | 3.7 | > 30000 | COC(=O)[C@@H](NC(=O)[C@H](Cc1cccc2ccccc12)NC(=O)C[C@H](N)[C@H](Cc1ccccc1)NC(=O)[C@@H](NC(=O)[C@H](CC(C)C)NC(=O)CC(C)C)C(C)C)C(C)C [Compound 28, Methyl (S)-2-[(S)-2-((3S,4S)-3-amino-4-{(S)-3-methyl-2-[(S)-4-methyl-2-(3-methyl-butyrylamino)pentanoylamino]butyryl-amino}-5-phenylpentanoylamino)-3-naphthalen-1-ylpropionylamino]-3-methylbutyrate] (Isovaleryl-LV[X1][1Nal]V-OMe)
13 | 48 | > 30000 | CC[C@H](C)[C@H](NC(=O)Cc1cccc(OC(F)(F)F)c1)C(=O)N[C@@H](Cc1ccccc1)[C@@H](N)CC(=O)N[C@H](C(=O)N[C@H](CO)C(C)C)[C@@H](C)CC [Compound 41, N-{(2S,3S)-1-[1-((S)-Hydroxymethyl)-2-methylpropylcarbamoyl]-2-methylbutyl)-3-(S)-amino-4-{(S)-(2S,3S)-3-methyl-2-[2-(3-trifluoromethoxyphenyl)acetylamino]-pentanoylamino}-5-phenylpentanamide]
14 | 18 | > 30000 | CC[C@H](C)[C@H](NC(=O)C[C@H](N)[C@H](Cc1ccccc1)NC(=O)[C@@H](NC(=O)Cc1cccc(OC(F)(F)F)c1)C(C)C)C(=O)N[C@H](C(=O)OC)C(C)C [Compound 7, Methyl (S)-2-[(2S,3S)-2-((3S,4S)-3-amino-4-{(S)-3-methyl-2-[2-(3-trifluoromethoxy-phenyl)acetylamino]butyrylamino}-5-phenylpentanoylamino)-3-methyl-pentanoylamino]-3-methylbutyrate]
